These are literature values, as cited in patent US20040122089A1, “Novel eicosanoid analgesics” (priority 2001, published 2004).

The structures appear in SMILES notation.

The target of data set [1] is T1, rat or human VR1 (UniProt Q8NER1).
T1 construct: other: Xenopus oocytes or HEK cells over-expressing rat or human VR1
The following applies: Xenopus oocytes or HEK cells over-expressing rat or human VR1; read-out: VR1 EC50 (literature); cited from earlier work.

For data set [2], the system named is anandamide membrane transporter (AMT). The following applies: RBL-2H3 cells; read-out: AMT IC50 (previously reported); cited from earlier work.
The next data set deals with mice. The following applies: cited from earlier work.
Data set [3] deals with rat or human VR1. Particulars: cited from earlier work.

In the case of `CCCCC/C=C\C/C=C\C/C=C\C/C=C\CCCC(=O)NCCO` [AEA, arachidonoylethanolamide], the EC50 on rat or human VR1 [1] is 1 to 5 µM. For the compound `CCCCC/C=C\C/C=C\C/C=C\C/C=C\CCCC(=O)N[C@H](C)CO` [Met-AEA, (R)-1′-Methyl-2′-hydroxy-ethyl-arachidonamide], the IC50 in data set [2] was 24.5 µM.

In the case of `CCCCC/C=C\C/C=C\C/C=C\C/C=C\CCCC(=O)NCc1ccc(O)c(OC)c1` [arvanil, N-[3-methoxy-4-hydroxy-benzyl]-arachidonamide], the IC50 in data set [2] was 3.6 µM. Besides, the “ED50 in the 'tetrad'” value in the data set with mice was 0.085 mg/kg. In addition, the “fold more potent at VR1 than CB1 receptors” value in the data set on rat or human VR1 [3] was “approximately 500 fold”.

By EC50 is commonly meant the midpoint of the concentration-response curve. In general, IC50 refers to the concentration needed to halve the response being measured.
